In test [1] the test system is fibrin monomers. In words: Time to clot of GPRP peptide:fibrin monomers mixture (cessation of flow when inverting the tube). Type of test: biochemical. As for the experimental part: A mixture of GPRP peptide:fibrin monomers was prepared as follows:
Fibrinogen final concentration used was 1%, 1.5%, 3%, 3.5%. A BAC2 solution [fibrinogen component of EVICEL®] containing 7% clottable fibrinogen was diluted in 20 mM sodium acetate (NaAcetate) buffer, pH 7.0 to obtain the final listed concentrations.
To form fibrin, thrombin (as in EVICEL® Fibrin Sealant) was added to the fibrinogen solution at a final concentration of 10 IU/ml or 100 IU/ml and then the time to clot was recorded. Clotting was assessed by cessation of flow when inverting the tube.
The fibrin monomer concentration was estimated as being equal to the fibrinogen concentration.
All of these (having a ratio of at most 57:1) are below the minimal ratio required for long term stabilization of fibrin monomers. The GPRP:fibrin solution was prepared as described above (by adding a GPRP peptide into a fibrinogen solution and adding thrombin into the GPRP:fibrinogen mix). Next, the time to clotting was recorded as above.

Test [2] has as its system fibrin monomers. The description is as above. Type of test: biochemical. Particulars: 1% fibrin monomers, thrombin 10 or 100 IU/ml.

“Also recorded” adds a separate entry of the source.

Gly-Pro-Arg-Pro [GPRP]: the Time to clot result in the test with fibrin monomers [1] (1% fibrin monomers, 0.1 mM GPRP, GPRP:fibrin 3.4 fold, thrombin 10 or 100 IU/ml) was “immediately; also recorded: Immediate”; with fibrin monomers [1] (3% fibrin monomers, 0.1 mM GPRP, GPRP:fibrin 1.1 fold), 5 s; in the test on fibrin monomers [1] (3% fibrin monomers, 0.2 mM GPRP, GPRP:fibrin 2.3 fold), 7 s; in the test on fibrin monomers [1] (3% fibrin monomers, 0.5 mM GPRP, GPRP:fibrin 5.7 fold), 11 s; in the test on fibrin monomers [1] (3% fibrin monomers, 1 mM GPRP, GPRP:fibrin 11.3 fold), 13 s; with fibrin monomers [1] (3% fibrin monomers, 1.5 mM GPRP, GPRP:fibrin 17 fold), 22 s. For the same substance, the Time to clot is 28 s with fibrin monomers [1] (3% fibrin monomers, 2 mM GPRP, GPRP:fibrin 22.7 fold); 150 s in the test with fibrin monomers [1] (3% fibrin monomers, 3 mM GPRP, GPRP:fibrin 34 fold); 480 s in the test with fibrin monomers [1] (3% fibrin monomers, 4 mM GPRP, GPRP:fibrin 45 fold); 900 s in the test on fibrin monomers [1] (3% fibrin monomers, 5 mM GPRP, GPRP:fibrin 56.7 fold); 4 h with fibrin monomers [2] (5 mM GPRP, GPRP:fibrin 170 fold); 170 to 190 h in the test with fibrin monomers [2] (10 mM GPRP, GPRP:fibrin 340 fold).

For the origin of these results see patent publication US10357589B2, “One component fibrin glue comprising a polymerization inhibitor” (Omrix Biopharmaceuticals Ltd., priority 2013, dated 2019).
